Structures can show the parent of a compound that is named as a salt.
What was measured:
PDGFR-α = PDGFR-α (Homo sapiens, UniProt P16234); settings: known from the art; cited from earlier work
BBB = assay: Evans Blue extravasation (BBB opening) after intraventricular injection; type: in vivo; settings: Example 1, FIG. 1; C57BL6 mice, 2 μl intraventricular, 3 μM, 1 hour after injection
Experimental: (§1) Wild type C57BL6 mice (10 Week old) were injected intraventricularly into the dorsal third ventricle with 2 μl of PBS, active PDGF-AA, PDGF-BB (both from Preprotech Inc.) and PDGF-CC (see below) (3 μM). Evans Blue was given intravenously immediately after the injection. One hour after the injection, the animals were perfused with PBS and the brain tissue was removed and processed for Evans Blue extravasation.
as §1, with “of either” for “of”, “PBS, wild type murine tPA (3 μM),” for “PBS,”, “active” for “active PDGF-AA, PDGF-BB (both from Preprotech Inc.) and”, “(3 μM), or wild type murine tPA (3 μM) plus active PDGF-CC” for “(see below)”
Wt C57BL6 mice (10 Week old) were injected intraventricularly with 3 μl of either PBS, wild type murine tPA (3 μM), wild type murine tPA (3 μM) with rabbit anti-PDGF-CC (150 μg/ml). Evans Blue was given intravenously immediately after the injection. One hour after the injection, the animals were perfused with PBS and the brain tissue was removed and processed for Evans Blue extravasation.

Sequence of PDGFR-α (P16234 24-1089, species assumed): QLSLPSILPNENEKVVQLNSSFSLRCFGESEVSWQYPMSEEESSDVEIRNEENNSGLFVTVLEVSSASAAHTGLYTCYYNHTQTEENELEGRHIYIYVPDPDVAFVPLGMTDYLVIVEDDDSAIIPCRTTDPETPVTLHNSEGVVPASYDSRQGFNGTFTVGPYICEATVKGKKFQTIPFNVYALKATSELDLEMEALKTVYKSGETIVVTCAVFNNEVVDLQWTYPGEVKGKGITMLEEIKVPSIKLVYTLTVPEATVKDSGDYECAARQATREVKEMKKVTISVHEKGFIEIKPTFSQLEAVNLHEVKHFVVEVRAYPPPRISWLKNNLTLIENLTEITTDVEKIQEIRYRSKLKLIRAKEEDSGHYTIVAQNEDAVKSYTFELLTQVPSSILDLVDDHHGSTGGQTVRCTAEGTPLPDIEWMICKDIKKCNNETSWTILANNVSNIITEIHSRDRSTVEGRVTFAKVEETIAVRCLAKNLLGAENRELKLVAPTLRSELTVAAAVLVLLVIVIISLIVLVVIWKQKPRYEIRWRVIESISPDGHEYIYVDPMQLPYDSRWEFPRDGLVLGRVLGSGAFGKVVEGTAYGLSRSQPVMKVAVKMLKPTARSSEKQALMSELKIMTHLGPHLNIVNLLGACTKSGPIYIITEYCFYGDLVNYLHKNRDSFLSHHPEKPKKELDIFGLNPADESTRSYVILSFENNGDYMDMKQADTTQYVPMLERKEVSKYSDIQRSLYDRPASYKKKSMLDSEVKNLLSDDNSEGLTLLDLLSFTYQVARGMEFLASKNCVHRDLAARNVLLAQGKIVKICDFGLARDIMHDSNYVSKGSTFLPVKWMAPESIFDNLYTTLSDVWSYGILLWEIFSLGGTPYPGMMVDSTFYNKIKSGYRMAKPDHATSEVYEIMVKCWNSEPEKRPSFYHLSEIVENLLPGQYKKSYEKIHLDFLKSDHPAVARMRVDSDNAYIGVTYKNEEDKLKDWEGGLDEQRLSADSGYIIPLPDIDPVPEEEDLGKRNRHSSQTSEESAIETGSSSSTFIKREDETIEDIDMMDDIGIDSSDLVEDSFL

Compound | inhibition of PDGFR-α (PDGFR-α) | vascular permeability / opening of the BBB (Evans Blue extravasation) (BBB)
Cc1ccc(NC(=O)c2ccc(CN3CCN(C)CC3)cc2)cc1Nc1nccc(-c2cccnc2)n1 [Gleevec®, imatinib mesylate] | at least partially inhibit | 
PDGF-AA: active platelet-derived growth factor AA dimer (from Preprotech Inc.) |  | induce increased vascular permeability
